Test results reported in patent publication US6737383B1, “Herbicidal oxadiazolidines” (priority 1999, dated 2004).

How the values were obtained:
duck salad = experiment: Test B flood test duck salad; type: in vivo, Heteranthera limosa; details: Pre-emergence
Summary of the method: (§1)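 Flood test on plants grown to the 2-leaf stage; treated plants kept in greenhouse twelve to sixteen days, then visually rated against controls on a 0 (no effect) to 10 (complete control) scale.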

surinam grass = experiment: Test B pre/postemergence surinam grass; type: in vivo, Brachiaria decumbens; details: for B. signalgrass plant response rating: scale of 0 to 10 where 0 is no effect and 10 is complete control
Summary of the method: (§2)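 Test chemicals in a non-phytotoxic solvent mixture with surfactant were sprayed preemergence onto planted seeds and postemergence onto plants 2 to 18 cm tall (1- to 4-leaf stage). After twelve to sixteen days in a greenhouse, injury was visually rated against untreated controls from 0 (no effect) to 10 (complete control).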

giant foxtail = experiment: Test B pre/postemergence giant foxtail; type: in vivo, Setaria faberii; details: for Giant foxtail plant response rating: scale of 0 to 10 where 0 is no effect and 10 is complete control
Summary of the method: as §2

rape = experiment: Test B pre/postemergence rape; type: in vivo, Brassica napus; details: for Rape plant response rating: scale of 0 to 10 where 0 is no effect and 10 is complete control
Summary of the method: as §2

morningglory = experiment: Test B pre/postemergence morningglory; type: in vivo, Ipomoea hederacea; details: for Morningglory plant response rating: scale of 0 to 10 where 0 is no effect and 10 is complete control
Summary of the method: as §2

sugar beet = experiment: Test B pre/postemergence sugar beet; type: in vivo, Beta vulgaris; details: for Sugarbeets plant response rating: scale of 0 to 10 where 0 is no effect and 10 is complete control
Summary of the method: as §2

corn = experiment: Test B pre/postemergence corn; type: in vivo, Zea mays; details: for Corn plant response rating: scale of 0 to 10 where 0 is no effect and 10 is complete control
Summary of the method: as §2

bamyardgrass = experiment: Test B flood test barnyardgrass; type: in vivo, Echinochloa crus-galli; details: Pre-emergence
Summary of the method: as §1

velvetleaf = experiment: Test B pre/postemergence velvetleaf; type: in vivo, Abutilon theophrasti; details: for Velvetleaf plant response rating: scale of 0 to 10 where 0 is no effect and 10 is complete control
Summary of the method: as §2

rice = experiment: Test B flood test rice; type: in vivo, Oryza sativa; details: Pre-emergence
Summary of the method: as §1

bedstraw = experiment: Test B pre/postemergence bedstraw; type: in vivo, Galium aparine; details: Preemergence; for Bedstraw plant response rating: scale of 0 to 10 where 0 is no effect and 10 is complete control
Summary of the method: as §2

blackgrass = experiment: Test B pre/postemergence blackgrass; type: in vivo, Alopecurus myosuroides; details: for Blackgrass plant response rating: scale of 0 to 10 where 0 is no effect and 10 is complete control
Summary of the method: as §2

soybean = experiment: Test B pre/postemergence soybean; type: in vivo, Glycine max; details: for Soybean plant response rating: scale of 0 to 10 where 0 is no effect and 10 is complete control
Summary of the method: as §2

smallflower flatsedge = experiment: Test B flood test smallflower flatsedge; type: in vivo, Cyperus difformis; details: Pre-emergence
Summary of the method: as §1

pigweed = experiment: Test B pre/postemergence pigweed; type: in vivo, Amaranthus retroflexus; details: for Redroot pigweed plant response rating: scale of 0 to 10 where 0 is no effect and 10 is complete control
Summary of the method: as §2

purple nutsedge = experiment: Test B pre/postemergence purple nutsedge; type: in vivo, Cyperus rotundus; details: for Nutsedge plant response rating: scale of 0 to 10 where 0 is no effect and 10 is complete control
Summary of the method: as §2

[1] = Rate 62 g/ha, flood test species, visual evaluation after twelve to sixteen days
[2] = Rate 125 g/ha, flood test species, scale 0 to 10 where 0 is no effect and 10 is complete control
[3] = Rate 250 g/ha, flood-test species, scale 0 to 10, 0 is no effect, 10 is complete control
[4] = Rate 500 g/ha, flood test species, scale 0 to 10 (0 no effect, 10 complete control)
[5] = Postemergence, Rate 125 g/ha, scale 0 to 10, 0 is no effect, 10 is complete control
[6] = Postemergence, Rate 250 g/ha, scale 0 to 10, 0 is no effect, 10 is complete control
[7] = Preemergence, Rate 62 g/ha, scale 0 to 10 (0 no effect, 10 complete control)
[8] = Rate 500 g/ha, Postemergence, scale 0 to 10, 0 no effect, 10 complete control

## CC(C)N(C(=O)n1oc(=O)n(C(C)CCl)c1=O)c1ccc(F)cc1 (stereo not drawn) [Compound 367]
Duck salad; [1]
  Plant response rating, Ducksalad (0 to 10 scale, 0 is no effect, 10 is complete control): 0
Duck salad; [2]
  Ducksalad plant response rating: 0
Duck salad; [3]
  Ducksalad plant response rating: 0
Duck salad; [4]
  Ducksalad plant response rating: 0
Surinam grass; [5]
  Plant response rating, B. signalgrass: 0
Surinam grass; [6]
  Plant response rating, B. signalgrass: 0
Surinam grass; [7]
  Plant response rating, B. signalgrass: 0
Surinam grass; Preemergence, Rate 125 g/ha
  B. signalgrass plant response rating (0 to 10 scale, 0 is no effect, 10 is complete control): 0
Surinam grass; Preemergence, Rate 250 g/ha
  B. signalgrass plant response rating: 4
Surinam grass; Preemergence, Rate 500 g/ha
  B. signalgrass plant response rating: 5
Surinam grass; Rate 62 g/ha, Postemergence
  B. signalgrass plant response rating: 0
Surinam grass; [8]
  Plant response rating, B. signalgrass: 4
Giant foxtail; [5]
  Plant response rating, Giant foxtail: 3
Giant foxtail; [6]
  Plant response rating, Giant foxtail: 8
Giant foxtail; [7]
  Plant response rating, Giant foxtail: 10
Giant foxtail; Preemergence, Rate 125 g/ha
  Giant foxtail plant response rating (0 to 10 scale): 10
Giant foxtail; Preemergence, Rate 250 g/ha
  Giant foxtail plant response rating: 10
Giant foxtail; Preemergence, Rate 500 g/ha
  Giant foxtail plant response rating: 10
Giant foxtail; Rate 62 g/ha, Postemergence
  Giant foxtail plant response rating: 0
Giant foxtail; [8]
  Plant response rating, Giant foxtail: 8
rape; [5]
  Plant response rating, Rape: 0
rape; [6]
  Plant response rating, Rape: 0
rape; [7]
  Plant response rating, Rape: 0
rape; Preemergence, Rate 125 g/ha
  Rape plant response rating (0 to 10 scale): 3
rape; Preemergence, Rate 250 g/ha
  Rape plant response rating: 5
rape; Preemergence, Rate 500 g/ha
  Rape plant response rating: 10
rape; Rate 62 g/ha, Postemergence
  Rape plant response rating: 0
rape; [8]
  Plant response rating, Rape: 4
morningglory; [5]
  Plant response rating, Morningglory: 5
morningglory; [6]
  Plant response rating, Morningglory: 6
morningglory; [7]
  Plant response rating, Morningglory: 0
morningglory; Preemergence, Rate 125 g/ha
  Morningglory plant response rating (0 to 10 scale): 0
morningglory; Preemergence, Rate 250 g/ha
  Morningglory plant response rating: 0
morningglory; Preemergence, Rate 500 g/ha
  Morningglory plant response rating: 2
morningglory; Rate 62 g/ha, Postemergence
  Morningglory plant response rating: 5
morningglory; [8]
  Plant response rating, Morningglory: 7
Sugar beet; [5]
  Plant response rating, Sugarbeets: 0
Sugar beet; [6]
  Plant response rating, Sugarbeets: 0
Sugar beet; [7]
  Plant response rating, Sugarbeets: 2
Sugar beet; Preemergence, Rate 125 g/ha
  Sugarbeets plant response rating (0 to 10 scale): 4
Sugar beet; Preemergence, Rate 250 g/ha
  Sugarbeets plant response rating: 7
Sugar beet; Preemergence, Rate 500 g/ha
  Sugarbeets plant response rating: 9
Sugar beet; Rate 62 g/ha, Postemergence
  Sugarbeets plant response rating: 0
Sugar beet; [8]
  Plant response rating, Sugarbeets: 7
corn; [5]
  Plant response rating, Corn: 0
corn; [6]
  Plant response rating, Corn: 0
corn; [7]
  Plant response rating, Corn: 0
corn; Preemergence, Rate 125 g/ha
  Corn plant response rating (0 to 10 scale): 0
corn; Preemergence, Rate 250 g/ha
  Corn plant response rating: 2
corn; Preemergence, Rate 500 g/ha
  Corn plant response rating: 5
corn; Rate 62 g/ha, Postemergence
  Corn plant response rating: 0
corn; [8]
  Plant response rating, Corn: 0
bamyardgrass; [1]
  Plant response rating, Barnyardgrass (0 to 10 scale, 0 is no effect, 10 is complete control): 0
bamyardgrass; [2]
  Barnyardgrass plant response rating: 0
bamyardgrass; [3]
  Barnyardgrass plant response rating: 0
bamyardgrass; [4]
  Barnyardgrass plant response rating: 0
velvetleaf; [5]
  Plant response rating, Velvetleaf: 2
velvetleaf; [6]
  Plant response rating, Velvetleaf: 2
velvetleaf; [7]
  Plant response rating, Velvetleaf: 3
velvetleaf; Preemergence, Rate 125 g/ha
  Velvetleaf plant response rating (0 to 10 scale): 3
velvetleaf; Preemergence, Rate 250 g/ha
  Velvetleaf plant response rating: 5
velvetleaf; Preemergence, Rate 500 g/ha
  Velvetleaf plant response rating: 6
velvetleaf; Rate 62 g/ha, Postemergence
  Velvetleaf plant response rating: 0
velvetleaf; [8]
  Plant response rating, Velvetleaf: 3
rice; [1]
  Plant response rating, Rice (0 to 10 scale, 0 is no effect, 10 is complete control): 0
rice; [2]
  Rice plant response rating: 0
rice; [3]
  Rice plant response rating: 0
rice; [4]
  Rice plant response rating: 0
bedstraw; Rate 62 g/ha, scale 0 to 10 (0 no effect, 10 complete control)
  Plant response rating, Bedstraw: 10
bedstraw; Rate 125 g/ha
  Bedstraw plant response rating (0 to 10 scale): 10
bedstraw; Rate 250 g/ha
  Bedstraw plant response rating: 10
bedstraw; Rate 500 g/ha
  Bedstraw plant response rating: 10
blackgrass; [5]
  Plant response rating, Blackgrass: 0
blackgrass; [6]
  Plant response rating, Blackgrass: 0
blackgrass; [7]
  Plant response rating, Blackgrass: 2
blackgrass; Preemergence, Rate 125 g/ha
  Blackgrass plant response rating (0 to 10 scale): 7
blackgrass; Preemergence, Rate 250 g/ha
  Blackgrass plant response rating: 8
blackgrass; Preemergence, Rate 500 g/ha
  Blackgrass plant response rating: 10
blackgrass; Rate 62 g/ha, Postemergence
  Blackgrass plant response rating: 0
blackgrass; [8]
  Plant response rating, Blackgrass: 8
soybean; [5]
  Plant response rating, Soybean: 1
soybean; [6]
  Plant response rating, Soybean: 1
soybean; [7]
  Plant response rating, Soybean: 0
soybean; Preemergence, Rate 125 g/ha
  Soybean plant response rating (0 to 10 scale): 0
soybean; Preemergence, Rate 250 g/ha
  Soybean plant response rating: 0
soybean; Preemergence, Rate 500 g/ha
  Soybean plant response rating: 0
soybean; Rate 62 g/ha, Postemergence
  Soybean plant response rating: 0
soybean; [8]
  Plant response rating, Soybean: 2
Smallflower flatsedge; [1]
  Plant response rating, S. Flatsedge (0 to 10 scale, 0 is no effect, 10 is complete control): 0
Smallflower flatsedge; [2]
  S. Flatsedge plant response rating: 0
Smallflower flatsedge; [3]
  S. Flatsedge plant response rating: 0
Smallflower flatsedge; [4]
  S. Flatsedge plant response rating: 0
pigweed; [5]
  Plant response rating, Redroot pigweed: 0
pigweed; [6]
  Plant response rating, Redroot pigweed: 0
pigweed; [7]
  Plant response rating, Redroot pigweed: 10
pigweed; Preemergence, Rate 125 g/ha
  Redroot pigweed plant response rating (0 to 10 scale): 10
pigweed; Preemergence, Rate 250 g/ha
  Redroot pigweed plant response rating: 10
pigweed; Preemergence, Rate 500 g/ha
  Redroot pigweed plant response rating: 10
pigweed; Rate 62 g/ha, Postemergence
  Redroot pigweed plant response rating: 0
pigweed; [8]
  Plant response rating, Redroot pigweed: 7
Purple nutsedge; [5]
  Plant response rating, Nutsedge: 0
Purple nutsedge; [6]
  Plant response rating, Nutsedge: 0
Purple nutsedge; [7]
  Plant response rating, Nutsedge: 0
Purple nutsedge; Preemergence, Rate 125 g/ha
  Nutsedge plant response rating (0 to 10 scale): 0
Purple nutsedge; Preemergence, Rate 250 g/ha
  Nutsedge plant response rating: 0
Purple nutsedge; Preemergence, Rate 500 g/ha
  Nutsedge plant response rating: 0
Purple nutsedge; Rate 62 g/ha, Postemergence
  Nutsedge plant response rating: 0
Purple nutsedge; [8]
  Plant response rating, Nutsedge: 3
